Source: PMC3282108 (ACS Chemical Biology, 2008)

Key:
cancer patients = conditions: cited from earlier work
HER2 = test: Western blot of HER2 levels in BT474 cells; type: cell-based, human; conditions: compound 8 1 μM, 6, 12, 24 h, 17-AAG 0.178 μM
[1] = cited from earlier work
Hsp70 = test: Western blot of Hsp70 levels in BT474 and SKBR3 cells; type: cell-based, human; conditions: 17-AAG 0.178 μM, compound 8 1 or 5 μM
[2] = test system: BT474 breast cancer cells; test: WST-1 colorimetric cell proliferation assay, BT474; type: cell-based, human; conditions: WST-1, concentration-dependent cell killing

C=CCNC1=C2C[C@@H](C)C[C@H](OC)[C@H](O)[C@@H](C)/C=C(\C)[C@H](OC(N)=O)[C@@H](OC)/C=C\C=C(/C)C(=O)NC(=CC1=O)C2=O [Compound 17-AAG, 17-Allylamino-17-demethoxygeldanamycin]
most common dose-limiting side effects (cancer patients): anorexia, nausea, diarrhea, hepatoxicity, fatigue, thrombocytopenia, and anemia
HER2 levels in BT474 cells (HER2): time-dependent decrease in HER2 levels
solubility in aqueous solution [1]: low solubility in aqueous solution
Hsp70 levels (Hsp70): significant increase in Hsp70 levels
cell killing selectivity, BT474 versus SKBR3 and MCF-12F [2]: significantly more potent in killing BT474 cells than SKBR3 and normal cells
